Experiments:
[1] = tested on: MIN6 cells; assay: Annexin V and propidium iodide staining for apoptosis and necrosis; type: cell-based, murine; details: 20 uM or 200 uM, 4 hrs
Protocol: A) MIN6 cells were treated for 4 hrs with 0 uM (EtOH vehicle control), 20 uM or 200 uM CMPF prior to being loaded with Annexin V and propidium iodide fluorescent dyes, and counterstained with Hoechst dye. […] B) Primary CD1 islets were dispersed and treated with vehicle control (0 CMPF, black), 20 uM CMPF (grey), or 200 uM CMPF (white) for 48 hours, then stained with Annexin V, Propidium Iodide and Hoechst dye. Quantification of double positive staining was assessed by an Arrayscan VTI HCS reader.
Next the mechanism underlying the observed impairment in GSIS following treatment with CMPF was investigated. To determine whether CMPF was inhibiting GSIS by inducing beta cell apoptosis, Annexin V and Propidium Iodide staining was performed in MIN6 cells treated with vehicle (EtOH), 20 uM or 200 uM CMPF for 4 hrs to look for apoptosis and necrosis respectively. […] MIN6 cells treated with 5 mM H2O2 for 3 hrs were used as a positive control (FIG. 4).

[2] = tested on: mouse islets; assay: Microarray analysis of 24 hr treated islets; type: cell-based; details: 24 hr treatment
Protocol: A) Expression of insulin, insulin processing enzymes, insulin transcription factors and glucose-sensing genes in 24-hour treated islets (N=5-6/group). B) MMP following 24-hour incubation with control or 200 μM CMPF, and change in fluorescence (N=4/group). […] Values are mean+/−SEM. Student's t-test (a,c), one-way ANOVA (b). *P<0.05, **P<0.01
(§1) Total RNA was extracted from 24 hour vehicle or CMPF-treated islets using the Qiagen RNeasy Plus mini kit (Hilden, Germany). Microarray analysis was performed as previously described (Basford et al. 2012) using the Affymetrix Mouse 430 2.0 Gene Chip at the University Health Network microarray center (Toronto, Canada). Significant changes were defined as P<0.05. Microarray data will be available on the NCBI GEO database at the time of publication. Human islet microarray data can be found at GE040709. Reverse transcription from total RNA and quantitative real time PCR (qPCR) analysis was performed as previously described (Basford et al. 2012). Primers were designed using Primer3 software (NCBI). Data were normalized to beta actin mRNA.
Given that CMPF causes hyperinsulinemia during the fed-state in vivo, and exaggerated secretion of insulin from islets under non-stimulatory conditions in vitro, we rationalized that there must be a defect in glucose-sensing and/or secretion of insulin that could not be solely explained by effects on insulin production. […] To confirm changes in mitochondrial function, 24 hr CMPF treated islets were analyzed by microarray. […] When organized based on biological process, the largest differentially expressed cluster encompassed genes involved in metabolism (38%) (FIG. 17c). […] Such a switch can decrease the beta-cell's ability to sense and metabolize glucose, limiting their capacity for GSIS thus may explain CMPF's effect on beta-cells (Hue et al., 2009).

[3] = tested on: murine islets; assay: qPCR mRNA expression in treated murine islets; type: cell-based; details: 24 hrs
Protocol: as §1, with “First, the effect of CMPF treatment on insulin biosynthesis was investigated to determine if insulin is available to be released upon stimulation. MIN6, murine and human islets were treated with vehicle control, 20 uM and 200 uM CMPF for 4 hrs (MIN6) or 24 hrs (islets), and total insulin content measured. […] To determine the mechanism through which CMPF is reducing total insulin content, quantitative PCR (qPCR) was performed on RNA that was isolated from murine islets treated with either vehicle control or 200 uM CMPF for 24 hrs. […] Total” for “Total”

[4] = tested on: islets; assay: Insulin and proinsulin in the media of 24 hr treated islets; type: cell-based, mouse; details: 24 hr treatment
Protocol: A) Proinsulin in the media of 24 hr treated islets (n=4/group). B) Mitochondrial membrane potential (MMP) following acute addition of vehicle control or 200 μM of CMPF (N=3/group). C) ROS levels in 4- and 24-hour treated mouse islets with representative images (N=10-15 islets/mouse from 4 mice/group). D) Expression of antioxidant genes Cat and (e) Ucp2 (n=4/group). F) ROS accumulation in 24 hr-treated islets treated with 500 μM NAC (n=10 islets/mouse from 4 mice/group). G) GSIS and (h) total insulin content from 24 hr-treated islets co-treated with 500 μM NAC (n=4/group). Western blots showing (i) Ser9 phosphorylation of GSK3β, (j) Ser473 phosphorylation of AKT (n=3/group). K) Immunofluorescent staining showing nuclear translocation of FOXO1 and (l) PDX1 with CMPF and NAC treatment (n=3-6). Quantification of nuclear percentage of (m) FOXO1 and (n) PDX1 based on immunofluorescent staining with CMPF and NAC treatment. […]
Lower total insulin content may be due to beta-cell exhaustion caused by over-stimulation and/or defective insulin production. To determine the mechanism through which CMPF diminishes insulin content, we measured insulin in the media following 24 hr treatment. […] To first determine if CMPF is metabolized by beta-cells, we measured changes in mitochondrial membrane potential (MMP) in mouse islets acutely treated with CMPF. […]

For CCCc1oc(CCC(=O)O)c(C(=O)O)c1C [CMPF, 3-carboxy-4-methyl-5-propyl-2-furanpropanoic acid], the “Annexin V and propidium iodide staining (apoptosis, necrosis)” value [1] was “No significant staining”, the “genes related to fat oxidation” value [2] was “significant upregulation” and the “share of differentially expressed genes in the metabolism cluster” value [2] was 38%. The “transcripts significantly differentially expressed” value [2] was 6.2%, the “CpE mRNA” value ([3]; 200 uM) was “significantly lower levels” and the GCK expression ([3]; 200 uM) was “trend toward lower expression”. For the same compound, the GLUT2 expression ([3]; 200 uM) was “significantly reduced”, the “HNF4a mRNA” value ([3]; 200 uM) was “significant reduction” and the “MAFA mRNA” value ([3]; 200 uM) was “significant reduction”. For the same compound, the “PCSK1 mRNA” value ([3]; 200 uM) was “trending lower levels”, the “PCSK2 mRNA” value ([3]; 200 uM) was “trending lower levels” and the “PDX1 mRNA” value ([3]; 200 uM) was “significant reduction”. For the same compound, the “insulin mRNA” value ([3]; 200 uM) was “significant reduction”, the Ucp2 expression [3] was “Increased antioxidant gene expression” and the “catalase (Cat) expression” value [3] was “Increased antioxidant gene expression”. For the same compound, the “accumulation of total insulin in the media” value [4] was “no difference” and the “proinsulin in the media” value [4] was “substantially more proinsulin”.

Source: patent US9726659B2, “CMPF as a biomarker for diabetes and associated methods” (The Governing Council of the University of Toronto, priority 2012, dated 2017)
